Data reported in publication PMC7413254 (Nature Communications, 2020).

Assays:
Type in all cases: cell-based
PfCRT^3D7 = PfCRT^3D7 (Plasmodium falciparum, UniProt Q8IBZ9); assay: cell-based; conditions: PfCRT3D7 oocytes, normalised to oocyte type control
Procedure: (§1) Unless specified otherwise, the transport assays were conducted over 1.5 h at 27.5 °C and the reaction buffer was ND96 (96 mM NaCl, 2 mM KCl, 1 mM MgCl2, 1.8 mM CaCl2, 10 mM MES and 10 mM Tris-base) at pH 5.5.
(§2) The intracellular concentrations were calculated using previous estimates of the volume of stage V–VI oocytes (~400 nL[60]). […] The oocytes were injected with VF-6 suspended in 25 nL ND96 buffer adjusted to pH 5.0, 5.5, 6.0 or 7.0, which corresponded to the injection of 2.5–250 fmol of H^+. The Na^+-dependence of the trans-stimulatory effect of VF-6 was assessed by injecting the oocytes with VF-6 suspended in ND96 buffer (pH 5.5) or a Na^+-free version of this buffer (the Na^+ was replaced with choline).
(§3) At least four independent experiments were performed (on different days and using oocytes from different frogs), and within each experiment measurements were made from ten oocytes per treatment.

PfCRT^Dd2 [1] = molecular target: T1, PfCRT^Dd2 (Plasmodium falciparum, UniProt Q9N623, A220S/I356T/K76T/M74I/N326S/N75E/Q271E/R371I); assay: cell-based; conditions: for PfCRT-mediated [3H]CQ transport, trans-stimulation (% PfCRTDd2 control): PfCRTDd2 oocytes, normalised to oocyte type control; for [3H]CQ transport (% PfCRTDd2 control), trans-stimulation, PfCRTDd2: PfCRT-mediated component (background subtracted), mean ± SEM, SEM
T1 sequence (Q9N623 whole entry A220S/I356T/K76T/M74I/N326S/N75E/Q271E/R371I): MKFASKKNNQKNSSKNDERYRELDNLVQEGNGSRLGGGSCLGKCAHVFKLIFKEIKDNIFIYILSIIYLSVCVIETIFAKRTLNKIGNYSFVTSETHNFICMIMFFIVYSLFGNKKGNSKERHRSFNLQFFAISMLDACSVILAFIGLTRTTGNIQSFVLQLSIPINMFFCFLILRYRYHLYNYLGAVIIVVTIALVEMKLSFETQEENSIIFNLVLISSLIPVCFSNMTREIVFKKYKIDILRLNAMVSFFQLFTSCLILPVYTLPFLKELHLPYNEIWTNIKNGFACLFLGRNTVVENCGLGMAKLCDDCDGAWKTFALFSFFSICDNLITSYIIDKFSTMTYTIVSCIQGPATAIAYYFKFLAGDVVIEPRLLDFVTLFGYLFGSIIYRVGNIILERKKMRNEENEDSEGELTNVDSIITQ
Procedure: as §1, §2, §3

PfCRT^Ecu1110 [2] = molecular target: T2, PfCRT^Ecu1110 (Plasmodium falciparum, UniProt Q9N623, A220S/I356L/K76T/N326D); assay: cell-based; conditions: for PfCRT-mediated [3H]CQ transport, trans-stimulation (% PfCRTEcu1110 control): PfCRTEcu1110 oocytes, normalised to oocyte type control; for [3H]CQ transport (% PfCRTDd2 control), trans-stimulation, PfCRTEcu1110: PfCRT-mediated component (background subtracted), sheet title says normalised to PfCRTDd2 control, mean ± SEM, SEM
T2 sequence (Q9N623 whole entry A220S/I356L/K76T/N326D): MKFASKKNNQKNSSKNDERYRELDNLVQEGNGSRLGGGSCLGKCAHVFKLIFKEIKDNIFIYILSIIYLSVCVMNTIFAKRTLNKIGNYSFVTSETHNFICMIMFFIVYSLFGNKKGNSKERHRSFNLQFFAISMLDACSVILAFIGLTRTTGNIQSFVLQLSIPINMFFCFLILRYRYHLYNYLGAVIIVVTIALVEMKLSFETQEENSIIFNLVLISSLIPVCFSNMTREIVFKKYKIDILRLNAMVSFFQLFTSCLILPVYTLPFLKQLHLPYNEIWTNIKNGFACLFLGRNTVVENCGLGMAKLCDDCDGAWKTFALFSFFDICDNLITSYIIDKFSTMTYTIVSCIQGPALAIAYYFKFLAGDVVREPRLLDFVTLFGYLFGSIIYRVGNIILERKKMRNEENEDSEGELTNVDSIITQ
Procedure: as §1, §2, §3

PfCRT^Dd2 [3] = molecular target: T1, PfCRT^Dd2; assay: [3H]CQ uptake into Xenopus oocytes, cis-inhibition by unlabelled solute; conditions: PfCRTDd2 oocytes, background [3H]CQ accumulation subtracted, normalised to oocyte type control
Source text: (§4) The orientation of PfCRT in the parasite’s DV membrane, and also in the oocyte plasma membrane, is such that its N- and C-termini extend into the cytosol. The oocytes were suspended in a reaction buffer adjusted to pH 5.5 to mimic the pH of the DV lumen[1],[2]. In this scenario, the transport of a substrate via PfCRT from the acidic extracellular solution into the oocyte cytosol[15] is analogous to the parasite’s PfCRT-mediated efflux of a substrate from the acidic DV and into the cytosol. Unless specified otherwise, this is the direction in which substrate transport was measured in the oocyte assays.
as §1
(§5) Ten oocytes were washed twice with the relevant ND96 buffer. […] The assay was terminated by removing the reaction buffer and washing the oocytes with ice-cold ND96 buffer. The oocytes were lysed in 10% (w/v) sodium dodecyl sulfate (SDS) and the radioactivity accumulated within each oocyte was measured with a MicroBeta^2 microplate liquid scintillation analyser (PerkinElmer).
as §3

PfCRT^Ecu1110 [4] = molecular target: T2, PfCRT^Ecu1110; assay: as above; conditions: for PfCRT-mediated [3H]CQ transport, cis-inhibition (% PfCRTEcu1110 control): PfCRTEcu1110 oocytes, background [3H]CQ accumulation subtracted, normalised to oocyte type control; for [3H]CQ transport (% PfCRTEcu1110 control), cis-inhibition, PfCRTEcu1110: PfCRT-mediated component (background subtracted), sheet title says normalised to PfCRTDd2 control, mean ± SEM, SEM
Source text: as §4, §1, §5, §3

[5] = [test solute]i = 5 mM (intracellular)
[6] = [test solute]i = 45 mM (intracellular; 30 mM for some solutes due to solubility)
[7] = [test solute]i = 5 mM (injected)
[8] = [test solute]i = 45 mM (30 mM for some solutes due to solubility)

PfCRT^3D7, sequence (Q8IBZ9 59-398): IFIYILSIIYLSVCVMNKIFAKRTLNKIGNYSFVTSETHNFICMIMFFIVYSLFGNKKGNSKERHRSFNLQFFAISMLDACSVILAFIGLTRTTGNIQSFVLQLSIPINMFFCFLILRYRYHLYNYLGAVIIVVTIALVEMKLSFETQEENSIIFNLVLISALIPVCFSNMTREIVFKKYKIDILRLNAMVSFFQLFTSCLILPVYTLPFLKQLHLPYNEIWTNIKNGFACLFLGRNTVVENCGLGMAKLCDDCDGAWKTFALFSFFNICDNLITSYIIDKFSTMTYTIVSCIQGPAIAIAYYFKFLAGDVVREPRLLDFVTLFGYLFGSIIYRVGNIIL

| Substance | PfCRT-mediated [3H]CQ transport, trans-stimulation (% PfCRT3D7 control) (PfCRT^3D7; [5]) | PfCRT-mediated [3H]CQ transport, trans-stimulation (% PfCRT3D7 control) (PfCRT^3D7; [6]) | PfCRT-mediated [3H]CQ transport, trans-stimulation (% PfCRTDd2 control) (PfCRT^Dd2 [1]; [5]) | PfCRT-mediated [3H]CQ transport, trans-stimulation (% PfCRTDd2 control) (PfCRT^Dd2 [1]; [6]) | [3H]CQ transport (% PfCRTDd2 control), trans-stimulation, PfCRTDd2 (PfCRT^Dd2 [1]; [7]) [% PfCRTDd2 control] | [3H]CQ transport (% PfCRTDd2 control), trans-stimulation, PfCRTDd2 (PfCRT^Dd2 [1]; [8]) [% PfCRTDd2 control] | PfCRT-mediated [3H]CQ transport, trans-stimulation (% PfCRTEcu1110 control) (PfCRT^Ecu1110 [2]; [5]) | PfCRT-mediated [3H]CQ transport, trans-stimulation (% PfCRTEcu1110 control) (PfCRT^Ecu1110 [2]; [6]) | [3H]CQ transport (% PfCRTDd2 control), trans-stimulation, PfCRTEcu1110 (PfCRT^Ecu1110 [2]; [7]) [% PfCRTEcu1110 control] | [3H]CQ transport (% PfCRTDd2 control), trans-stimulation, PfCRTEcu1110 (PfCRT^Ecu1110 [2]; [8]) [% PfCRTEcu1110 control] | PfCRT-mediated [3H]CQ transport, cis-inhibition (% PfCRTDd2 control) (PfCRT^Dd2 [3]; [test solute] = 0.5 mM) | PfCRT-mediated [3H]CQ transport, cis-inhibition (% PfCRTDd2 control) (PfCRT^Dd2 [3]; [test solute] = 1 mM) | PfCRT-mediated [3H]CQ transport, cis-inhibition (% PfCRTDd2 control) (PfCRT^Dd2 [3]; [test solute] = 2 mM) | PfCRT-mediated [3H]CQ transport, cis-inhibition (% PfCRTEcu1110 control) (PfCRT^Ecu1110 [4]; [test solute] = 0.5 mM) | PfCRT-mediated [3H]CQ transport, cis-inhibition (% PfCRTEcu1110 control) (PfCRT^Ecu1110 [4]; [test solute] = 1 mM) | PfCRT-mediated [3H]CQ transport, cis-inhibition (% PfCRTEcu1110 control) (PfCRT^Ecu1110 [4]; [test solute] = 2 mM) | [3H]CQ transport (% PfCRTEcu1110 control), cis-inhibition, PfCRTEcu1110 (PfCRT^Ecu1110 [4]; [test solute] = 0.5 mM) [% PfCRTEcu1110 control] | [3H]CQ transport (% PfCRTEcu1110 control), cis-inhibition, PfCRTEcu1110 (PfCRT^Ecu1110 [4]; [test solute] = 2 mM) [% PfCRTEcu1110 control] | [3H]CQ transport (% PfCRTEcu1110 control), cis-inhibition, PfCRTEcu1110 (PfCRT^Ecu1110 [4]; [test solute] = 1 mM) [% PfCRTEcu1110 control] |
| --- | --- | --- | --- | --- | --- | --- | --- | --- | --- | --- | --- | --- | --- | --- | --- | --- | --- | --- | --- |
| DPENF [DEF-5] | 129 ± 3.2 | 162 ± 4.2 | 100 ± 2.1 | 112 ± 0.5 | 100 ± 2.1 | 112 ± 0.5 | 122 ± 1.9 | 137 ± 2.5 | 37 ± 1.5 | 41 ± 2.3 | 29 ± 2.1 | 20 ± 1.1 | 11 ± 0.1 | 41 ± 2.7 | 28 ± 1.0 | 18 ± 0.3 | 13 ± 0.1 | 6.0 ± 0.3 | – |
| DPENFR [DR-6] | 137 ± 4.6 | 188 ± 5.7 | 100 ± 3.7 | 112 ± 4.3 | 100 ± 3.7 | 112 ± 4.3 | 118 ± 0.6 | 127 ± 4.2 | 36 ± 1.4 | 38 ± 1.5 | 38 ± 0.3 | 30 ± 1.0 | 17 ± 0.3 | 38 ± 1.3 | 35 ± 4.2 | 27 ± 0.1 | – | 9.0 ± 0.02 | 11 ± 0.1 |
| DTSLKPIS [DS-8] | 135 ± 3.7 | 180 ± 3.4 | 95 ± 3.1 | 112 ± 1.2 | – | – | 127 ± 2.8 | 140 ± 4.1 | – | – | 40 ± 2.2 | 28 ± 0.6 | 19 ± 0.3 | 57 ± 2.1 | 42 ± 3.1 | 28 ± 1.3 | – | – | – |
| EFTPPVQ [EQ-7] | 136 ± 4.2 | 188 ± 4.7 | 96 ± 3.3 | 112 ± 3.2 | 96 ± 3.3 | 112 ± 3.2 | 129 ± 4.5 | 136 ± 2.7 | 39 ± 1.5 | 41 ± 1.8 | 40 ± 1.1 | 28 ± 0.2 | 17 ± 1.1 | 44 ± 1.4 | 32 ± 2.4 | 22 ± 2.9 | 14 ± 0.6 | 8.0 ± 0.03 | 10 ± 0.5 |
| EFTPPVQA [EA-8] | 131 ± 2.9 | 174 ± 3.3 | 97 ± 2.2 | 98 ± 1.9 | – | – | 127 ± 3.1 | 136 ± 4.1 | – | – | – | 27 ± 0.9 | 18 ± 0.2 | 58 ± 1.1 | 43 ± 1.6 | 29 ± 2.5 | – | – | – |
